“Also recorded” adds a separate entry of the source.
Tests used:
anti-BCMA CAR T cells [1] = experiment: Cell surface marker expression by multiparameter mass cytometry (CyTOF); assay type: cell-based
Experimental: Expression analysis of 29 additional cell surface markers on anti-BCMA CAR T cells cultured with IL-2 and ZSTK474 was performed using multiparameter mass cytometry (CyTOF) and compared with CAR T cells cultured in IL-2 alone.

anti-BCMA CAR T cells [2] = experiment: Tonic (antigen-independent) IFN-γ release by ELISA; assay type: cell-based; conditions: 14 donors; after ten days of culture; IFN-γ levels below 200 pg/mL represent no tonic activity
Experimental: Tonic activity of CAR T cells in the absence of antigen has been associated with reduced biological activity. […] Anti-BCMA CAR T cells cultures were prepared using a system directly scalable to large clinical manufacturing processes. […] 2×10^8 transducing units of lentivirus encoding anti-BCMA CARs were added one day after culture initiation. […] At the end of manufacture, an equivalent number of anti-BCMA CAR T cells were re-cultured for 24 hours in media alone. The amount of IFN-γ released in 24 hours was quantified by ELISA. In this assay IFN-γ levels below 200 pg/mL represent no tonic activity.

anti-BCMA CAR T cells [3] = experiment: CD8 expression by flow cytometry; assay type: cell-based, human; conditions: seven normal donors, IL-2 and ZSTK474
Experimental: CD8 expression was determined using a fluorescently-labeled anti-CD8 antibody and flow cytometry. […] FIG. 10.

anti-BCMA CAR T cells [4] = experiment: CD62L expression on anti-BCMA CAR T cells by flow cytometry at end of culture; assay type: cell-based, human
Experimental: CAR T cells were cultured with either MK-2206 or triciribine phosphate-TCN (AKT inhibitors) or ZSTK474 (PI3K inhibitor). CAR T cells specific for B cell maturation antigen (BCMA) were used in these set of experiments. CAR T cell cultures were performed using a system directly scalable to large clinical manufacturing processes. […] 2×10^8 transducing units of lentivirus encoding anti-BCMA CARs were added one day after culture initiation. […] At the end of culture, the anti-BCMA CAR T cells were interrogated for phenotype.
(§1) Expression of CD62L on anti-BCMA CAR T cells was assessed by flow cytometry at the end of culture. Anti-BCMA CAR T cells were specifically identified using recombinant human BCMA-IgG Fc conjugated to PE. CD62L expression was determined with a co-stain using an antibody specific to CD62L. […] (FIG. 3).
Anti-BCMA CAR T cells cultures were prepared using a system directly scalable to large clinical manufacturing processes. […] 2×10^8 transducing units of lentivirus encoding anti-BCMA CARs were added one day after culture initiation. […] At the end of culture, the anti-BCMA CAR T cells were interrogated for phenotype.
as §1, with “7).” for “3).”

anti-BCMA CAR T cells [5] = experiment: CD127, CD197, CD38 co-expression by fluorescence-based flow cytometry; assay type: cell-based; conditions: seven donors, ten days of culture
Description: The mass cytometry data in Example 8 identified a set of cell surface markers that further characterizes the phenotype of CART cells cultured in the presence of ZSTK474. […] CAR T cells from seven donors cultured in the presence or absence of ZSTK474 were stained with fluorescently labeled antibodies to CD127, CD197, and CD38. […] FIG. 9.

anti-BCMA CAR T cells [6] = experiment: Cell surface expression of anti-BCMA CAR by flow cytometry; assay type: cell-based, human; conditions: end of culture, four normal donors
Experimental: (§2) 1×10^8 transducing units of lentivirus encoding anti-BCMA CARs were added one day after culture initiation and at the end of culture, the anti-BCMA CAR T cells were interrogated for genomic integration and cell surface expression of the anti-BCMA CAR.
Expression of the anti-BCMA CAR on the surface of T cells was assessed by flow cytometry at the end of culture. Anti-BCMA CAR T cells were specifically identified using recombinant human BCMA-IgG Fc conjugated to PE.

T cells [7] = experiment: T cell proliferation by CellTrace Violet dilution (flow cytometry); assay type: cell-based, human
Experimental: (§3) Peripheral blood mononuclear cells (PBMC) are a heterogeneous cellular population containing T cells. PBMC were harvested from normal donors and labeled with a fluorescent dye (CellTrace® Violet, Molecular Probes), whose intensity is progressively diluted by a factor of two with each cell division. The labeled PBMCs were used as a source of cells for T cell expansion. […] The impact of MK-2206 on cell division was assayed by evaluating CellTrace Violet dilution with flow cytometry after the addition of 0.025 μM, 0.074 μM, 0.222 μM, 0.67 μM, or 2.0 μM, MK-2206 to the T cultures at day 0. […] A pairwise t test was performed on all day seven cultures; (each concentration of MK-2206 was compared to 0 μM MK-2206: the cultures were not statistically different at the p≤0.05 level).

anti-BCMA CAR T cells [8] = experiment: Integrated copies of anti-BCMA CAR (vector copy number) by quantitative PCR; assay type: cell-based, human; conditions: end of culture, four normal donors, 1×10^8 transducing units lentivirus
Experimental: as §2
Integrated copies of the anti-BCMA CAR were assessed by quantitative PCR at the end of culture using primers that detect the vector or the genomic control RNAseP.

T cells [9] = experiment: CD62L expression on T cells cultured with MK-2206; assay type: cell-based, human
Experimental: as §3, with “level). The purpose of this experiment was to determine the effect of Akt inhibitors on T cell markers for T cell potency. The impact of MK-2206 (Selleckchem) on T cell potency was assessed by measuring CD62L expression in the T cell cultures manufactured in Example 1. Mouse models have shown that CD62L expression identifies potent T cells; T cells with greater anti-tumor efficacy after adoptive transfer. […] FIG. 2. A pairwise T test was performed on all day seven cultures (each concentration of MK-2206 was compared to 0 μM MK-2206: *p<0.05, **p<0.01).” for “level).”

[10] = Example 3: ten days of culture with IL-2 and optimized dose of inhibitor, three normal donors
[11] = Example 7: ten days of culture with IL-2 and optimized dose of inhibitor, four normal donors

| Structure (SMILES) | percentage of cells co-expressing CD127, CD197 and CD38 vs IL-2 alone (Venn diagrams) (anti-BCMA CAR T cells [1]; CD62L positive anti-BCMA T cells, ten days of culture) | anti-BCMA CAR T cells co-expressing CD127, CD197 and CD38 (anti-BCMA CAR T cells [1]; CyTOF, CD62L positive cells, ten days of culture) | expression of CD127, CD197 and CD38 vs IL-2 alone (anti-BCMA CAR T cells [1]; CyTOF, anti-BCMA CAR T cells cultured with IL-2 and ZSTK474) | IFN-γ released in 24 hours in media alone (tonic activity) (anti-BCMA CAR T cells [2]) | CD8 expression vs IL-2 alone (anti-BCMA CAR T cells [3]) | CD62L expression on anti-BCMA CAR T cells vs IL-2 alone (anti-BCMA CAR T cells [4]; [10]) | CD62L expression on anti-BCMA CAR T cells vs IL-2 alone (anti-BCMA CAR T cells [4]; [11]) | anti-BCMA CAR T cells co-expressing CD127, CD197 and CD38 vs IL-2 alone (anti-BCMA CAR T cells [5]) | anti-BCMA CAR expression on the surface of T cells vs IL-2 alone (anti-BCMA CAR T cells [6]) | T cell division / proliferation vs vehicle or non-treated controls (T cells [7]; seven days of culture, 0.025-2.0 μM MK-2206, IL-2, pairwise t test p≤0.05) | T cell division / proliferation vs no treatment control (T cells [7]; three days of culture, 0.025-2.0 μM MK-2206, IL-2, CD3 and CD28 antibodies) | integrated copies of the anti-BCMA CAR vs IL-2 only (anti-BCMA CAR T cells [8]) | CD62L expression on T cells vs no treatment control (T cells [9]; seven days of culture, all concentrations of MK-2206 tested, in presence of IL-2) | CD62L expression on T cells vs no treatment control (T cells [9]; three days of culture with MK-2206) |
| --- | --- | --- | --- | --- | --- | --- | --- | --- | --- | --- | --- | --- | --- | --- |
| FC(F)c1nc2ccccc2n1-c1nc(N2CCOCC2)nc(N2CCOCC2)n1 [ZSTK474] | increase in the percentage of cells co-expressing CD127, CD197 and CD38 | 24.5% | increased expression | consistent with lacking tonic activity; also recorded: did not significantly increase | significantly higher CD8 expression; also recorded: increased percentage of CD8 expressing anti-BCMA CAR T cells | increased CD62L expression; also recorded: significantly higher CD62L expression | significantly higher CD62L expression | significant increase; also recorded: increase in the percentage of cells co-expressing CD127, CD197 and CD38 | – | – | – | – | – | – |
| Nc1nc(N)c2nc(-c3cccc(O)c3)cnc2n1 [TG100713] | – | – | – | – | – | – | significantly higher CD62L expression | – | – | – | – | – | – | – |
| NC1(c2ccc(-c3nc4ccn5c(=O)[nH]nc5c4cc3-c3ccccc3)cc2)CCC1 [MK-2206] | – | – | – | – | – | significantly higher CD62L expression | significantly higher CD62L expression | – | significantly higher CAR expression | no statistically significant differences in T cell division; also recorded: not substantially different | did not substantially decrease T cell division; also recorded: only slightly decreased | significantly more integrated copies | significantly increases CD62L expression; also recorded: significant higher levels of CD62L expression | not substantially different |

Source: patent US11479755B2, “T cell compositions” (2seventy bio, Inc., priority 2015, dated 2022)
